Data published in article PMC6050274, “Buparlisib is a brain penetrable pan-PI3K inhibitor” (Scientific Reports, 2018).

Experiments:
Type in all cases: in vitro ADME
human BCRP (ABCG2) = molecular target: T1, human BCRP (ABCG2) (Homo sapiens, UniProt Q9UNQ0); assay: Concentration equilibrium transport assay (CETA), MDCK-BCRP; conditions: 100 nM
T1 construct: expressed in transfected cells; host or cells: MDCK (MDCK-BCRP)
T1 sequence (Q9UNQ0 1-655): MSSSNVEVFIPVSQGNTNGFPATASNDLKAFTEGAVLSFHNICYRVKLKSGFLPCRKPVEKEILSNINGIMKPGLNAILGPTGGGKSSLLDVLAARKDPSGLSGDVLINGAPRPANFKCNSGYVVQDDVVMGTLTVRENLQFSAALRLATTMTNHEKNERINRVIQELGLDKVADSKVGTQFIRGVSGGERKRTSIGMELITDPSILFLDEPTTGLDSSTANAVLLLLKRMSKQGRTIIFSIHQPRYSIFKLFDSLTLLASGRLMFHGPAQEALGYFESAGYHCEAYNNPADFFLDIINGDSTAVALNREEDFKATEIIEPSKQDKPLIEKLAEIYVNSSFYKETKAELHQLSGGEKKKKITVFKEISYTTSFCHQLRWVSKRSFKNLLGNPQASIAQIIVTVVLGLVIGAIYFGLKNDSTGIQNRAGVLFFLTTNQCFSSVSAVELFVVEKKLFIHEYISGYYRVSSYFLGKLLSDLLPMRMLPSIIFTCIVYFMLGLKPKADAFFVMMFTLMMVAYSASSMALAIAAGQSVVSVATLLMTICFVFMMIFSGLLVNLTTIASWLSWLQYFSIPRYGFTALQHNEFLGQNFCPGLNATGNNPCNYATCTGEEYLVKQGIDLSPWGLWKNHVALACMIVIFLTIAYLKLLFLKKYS
Text: (§1) Figure 1 Analysis of buparlisib substrate affinity for ABC transporters using in vitro transport assays. (A) The chemical structure of buparlisib. (B) A conventional transport assay (CTA) using LLC-PK1 cells in presence of zosuquidar to block endogenous (porcine) P-gp activity. […] (C) Concentration equilibrium transport assays (CETAs) using MDCK or LLC cells that overexpress murine BCRP, (Bcrp1), human BCRP, murine P-gp (Mdr1a) or human P-gp (MDR1). […] The P-gp inhibitor zosuquidar was used in all MDCK cell lines to inhibit endogenous P-gp activity and in LLC cell lines to validate possible P-gp-mediated translocations. […]
(§2) Conventional bidirectional transport assays (CTAs) and concentration equilibrium transport assays (CETAs) were performed as described previously. […] Transwell leakiness was determined as Carboxyl-[^14C]-inulin translocation exceeding 1.5% per hour and these wells were excluded from the analysis. […]
(§3) As described in detail before, CETA results were analysed with the General linear model repeated measures procedure of SPSS (v22; SPSS Inc, Chicago, IL)[25]. […] The standard error of the oral bioavailability was calculated using the formula below: SEF=F(SEAUCp.o./AUCp.o.)^2+(SEAUCi.v./AUCi.v.)^2 Buparlisib concentrations in WT and transporter knockout mice in vivo were compared using one-way analysis of variance followed by post hoc Bonferroni tests. […]

[1] = molecular target: T2, murine BCRP (Abcg2/Bcrp1) (Mus musculus, UniProt Q7TMS5); assay: Concentration equilibrium transport assay (CETA), MDCK-Bcrp1; conditions: MDCK-Bcrp1, 100 nM
T2 construct: expressed in transfected cells; host or cells: MDCK (MDCK-Bcrp1)
T2 sequence (Q7TMS5 1-657): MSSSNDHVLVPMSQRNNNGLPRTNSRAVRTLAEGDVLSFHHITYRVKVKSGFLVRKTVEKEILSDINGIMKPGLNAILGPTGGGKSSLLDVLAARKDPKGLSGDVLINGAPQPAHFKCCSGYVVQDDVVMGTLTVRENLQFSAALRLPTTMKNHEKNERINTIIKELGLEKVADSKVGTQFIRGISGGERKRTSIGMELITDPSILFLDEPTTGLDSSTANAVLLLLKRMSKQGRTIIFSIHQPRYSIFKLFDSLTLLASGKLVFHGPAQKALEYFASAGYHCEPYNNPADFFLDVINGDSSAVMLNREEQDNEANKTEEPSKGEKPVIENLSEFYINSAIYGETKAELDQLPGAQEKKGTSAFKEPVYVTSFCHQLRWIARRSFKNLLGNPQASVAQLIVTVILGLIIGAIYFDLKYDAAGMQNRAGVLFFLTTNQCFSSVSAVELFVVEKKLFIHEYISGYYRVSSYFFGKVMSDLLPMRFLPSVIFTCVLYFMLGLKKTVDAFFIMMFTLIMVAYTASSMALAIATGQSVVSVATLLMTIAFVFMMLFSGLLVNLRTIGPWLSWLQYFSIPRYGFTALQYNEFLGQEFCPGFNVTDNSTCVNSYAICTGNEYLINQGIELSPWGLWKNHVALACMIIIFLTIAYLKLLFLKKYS
Text: as §1, §2, §3

human P-gp (ABCB1/MDR1) = molecular target: T3, human P-gp (ABCB1/MDR1) (Homo sapiens, UniProt P08183); assay: Concentration equilibrium transport assay (CETA), LLC-MDR1; conditions: 100 nM
T3 construct: expressed in transfected cells; host or cells: LLC-PK1 (LLC-MDR1)
T3 sequence (P08183 whole entry): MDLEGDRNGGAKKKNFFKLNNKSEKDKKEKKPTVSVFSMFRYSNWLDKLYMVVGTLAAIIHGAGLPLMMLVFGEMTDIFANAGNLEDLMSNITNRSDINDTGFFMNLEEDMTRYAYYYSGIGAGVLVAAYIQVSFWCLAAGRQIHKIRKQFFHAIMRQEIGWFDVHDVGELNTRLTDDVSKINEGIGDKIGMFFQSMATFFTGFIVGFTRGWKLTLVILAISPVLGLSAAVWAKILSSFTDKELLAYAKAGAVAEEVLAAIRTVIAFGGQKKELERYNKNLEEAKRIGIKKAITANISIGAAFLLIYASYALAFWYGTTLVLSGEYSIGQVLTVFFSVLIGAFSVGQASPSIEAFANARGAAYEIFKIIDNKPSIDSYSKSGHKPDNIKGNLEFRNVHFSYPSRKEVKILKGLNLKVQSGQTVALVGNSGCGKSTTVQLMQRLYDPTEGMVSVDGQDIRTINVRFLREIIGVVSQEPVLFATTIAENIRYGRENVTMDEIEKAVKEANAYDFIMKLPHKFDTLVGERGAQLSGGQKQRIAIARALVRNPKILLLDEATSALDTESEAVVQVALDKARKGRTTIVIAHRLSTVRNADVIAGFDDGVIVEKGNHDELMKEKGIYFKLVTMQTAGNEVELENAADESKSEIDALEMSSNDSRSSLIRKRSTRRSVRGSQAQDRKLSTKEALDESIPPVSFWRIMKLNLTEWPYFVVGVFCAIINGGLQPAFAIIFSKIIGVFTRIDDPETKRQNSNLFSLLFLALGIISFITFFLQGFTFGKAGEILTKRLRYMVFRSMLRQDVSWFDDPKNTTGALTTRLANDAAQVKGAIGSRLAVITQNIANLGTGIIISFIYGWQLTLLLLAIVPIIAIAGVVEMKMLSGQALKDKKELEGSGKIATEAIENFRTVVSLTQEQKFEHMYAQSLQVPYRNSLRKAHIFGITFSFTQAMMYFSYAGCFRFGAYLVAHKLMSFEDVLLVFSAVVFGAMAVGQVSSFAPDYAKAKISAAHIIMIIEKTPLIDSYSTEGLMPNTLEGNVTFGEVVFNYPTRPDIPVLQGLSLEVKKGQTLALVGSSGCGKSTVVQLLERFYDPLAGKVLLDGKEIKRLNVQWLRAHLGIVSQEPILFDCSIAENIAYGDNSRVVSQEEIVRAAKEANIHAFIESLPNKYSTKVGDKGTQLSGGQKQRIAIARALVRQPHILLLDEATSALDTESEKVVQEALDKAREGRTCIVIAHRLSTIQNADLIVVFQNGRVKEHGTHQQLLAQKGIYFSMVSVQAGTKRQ
Text: as §1, §2, §3

[2] = molecular target: T4, murine P-gp (Abcb1a/Mdr1a) (Mus musculus, UniProt P21447); assay: Concentration equilibrium transport assay (CETA), LLC-Mdr1a; conditions: 100 nM
T4 construct: expressed in transfected cells; host or cells: LLC-PK1 (LLC-Mdr1a)
T4 sequence (P21447 whole entry): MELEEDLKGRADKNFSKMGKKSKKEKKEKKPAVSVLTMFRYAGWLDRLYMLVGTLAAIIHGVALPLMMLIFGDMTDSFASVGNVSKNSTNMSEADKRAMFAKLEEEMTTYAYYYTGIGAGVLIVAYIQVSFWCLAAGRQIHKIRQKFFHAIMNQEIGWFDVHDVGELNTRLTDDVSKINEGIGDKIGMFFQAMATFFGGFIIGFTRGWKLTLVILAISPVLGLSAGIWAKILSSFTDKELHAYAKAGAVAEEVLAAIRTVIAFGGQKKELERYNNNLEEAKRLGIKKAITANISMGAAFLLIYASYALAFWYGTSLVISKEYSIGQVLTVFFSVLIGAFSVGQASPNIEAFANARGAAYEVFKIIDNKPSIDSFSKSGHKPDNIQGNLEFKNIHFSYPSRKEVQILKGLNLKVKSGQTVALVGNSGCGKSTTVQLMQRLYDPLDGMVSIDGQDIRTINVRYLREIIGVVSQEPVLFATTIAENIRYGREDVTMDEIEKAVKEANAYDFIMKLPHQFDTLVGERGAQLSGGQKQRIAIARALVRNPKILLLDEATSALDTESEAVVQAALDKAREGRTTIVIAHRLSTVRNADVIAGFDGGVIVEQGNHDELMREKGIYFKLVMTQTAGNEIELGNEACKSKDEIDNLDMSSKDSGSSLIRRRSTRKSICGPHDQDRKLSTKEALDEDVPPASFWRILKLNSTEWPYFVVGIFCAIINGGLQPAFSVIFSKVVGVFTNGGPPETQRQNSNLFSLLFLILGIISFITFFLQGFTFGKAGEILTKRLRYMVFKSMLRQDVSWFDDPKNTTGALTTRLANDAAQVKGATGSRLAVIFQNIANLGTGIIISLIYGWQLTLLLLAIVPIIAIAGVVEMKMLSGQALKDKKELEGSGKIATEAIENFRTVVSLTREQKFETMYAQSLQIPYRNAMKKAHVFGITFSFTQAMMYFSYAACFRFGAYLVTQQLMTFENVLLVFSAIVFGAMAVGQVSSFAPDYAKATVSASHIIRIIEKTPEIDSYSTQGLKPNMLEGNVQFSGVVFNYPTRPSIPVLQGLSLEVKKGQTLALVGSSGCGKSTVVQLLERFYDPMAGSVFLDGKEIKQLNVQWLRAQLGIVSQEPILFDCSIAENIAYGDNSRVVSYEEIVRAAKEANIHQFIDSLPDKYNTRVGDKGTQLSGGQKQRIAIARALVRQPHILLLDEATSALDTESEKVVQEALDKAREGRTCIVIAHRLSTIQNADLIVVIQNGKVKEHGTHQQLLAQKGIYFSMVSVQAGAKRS
Text: as §1, §2, §3

Structure (SMILES): Nc1cc(C(F)(F)F)c(-c2cc(N3CCOCC3)nc(N3CCOCC3)n2)cn1 [buparlisib]
- substrate of human BCRP (human BCRP (ABCG2)): not a substrate
- substrate of murine BCRP [1]: very weak substrate
- substrate of human P-gp (human P-gp (ABCB1/MDR1)): not a substrate
- substrate of murine P-gp [2]: not a substrate
